According to patent US10537100B2, “Substituted methylenedioxybenzyl compounds and their use as synergists” (Endura SPA, priority 2015, dated 2020):

How the values were obtained:
[1] = target: T1, Myzus persicae resistance associated esterase, FE4 (Myzus persicae, UniProt P35502); assay: Inhibition of resistance associated esterase FE4, 4-nitrophenyl acetate substrate; type: biochemical; settings: for inhibition activity compared with PBO: FE4, statement in text; for remaining activity at 10000 µM (stock): purified FE4, 2.5 μL of 10 mM in acetone, 10 min incubation, 4-nitrophenyl acetate 0.8 mM, read-out: Myzus persicae esterases - percentage of the activity remaining FE4
T1 construct: would be utilized for the purified esterases from aphids; from tissue; host or cells: aphids (Myzus persicae)
T1 sequence (P35502 24-564): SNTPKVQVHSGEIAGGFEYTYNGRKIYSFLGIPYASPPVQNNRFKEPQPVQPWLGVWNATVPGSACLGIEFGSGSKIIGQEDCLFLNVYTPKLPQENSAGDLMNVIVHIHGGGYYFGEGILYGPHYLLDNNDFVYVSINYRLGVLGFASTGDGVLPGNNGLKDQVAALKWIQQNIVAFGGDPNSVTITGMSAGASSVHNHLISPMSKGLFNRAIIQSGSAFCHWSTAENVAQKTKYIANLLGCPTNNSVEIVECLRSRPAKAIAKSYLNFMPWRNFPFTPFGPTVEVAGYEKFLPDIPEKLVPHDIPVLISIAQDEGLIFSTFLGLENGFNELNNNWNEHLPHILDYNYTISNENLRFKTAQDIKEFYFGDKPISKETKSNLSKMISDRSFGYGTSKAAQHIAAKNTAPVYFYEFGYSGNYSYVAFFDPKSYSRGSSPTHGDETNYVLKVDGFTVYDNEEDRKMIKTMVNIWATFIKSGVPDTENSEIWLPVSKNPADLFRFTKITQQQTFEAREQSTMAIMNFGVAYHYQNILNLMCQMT
Procedure: It was envisaged, therefore, that the ‘esterase interference assay’ (Khot et al., 2008) would be utilized for the purified esterases from aphids. Various esterase substrates were assessed to find one suitable of monitoring inhibition in an insect homogenate. The Myzus persicae resistance associated esterase, FE4, was used.
Initially the esterase interference assay was carried out, as being the ‘absolute’ protocol for characterising interactions between the compounds of Example 1 and Example 2 and FE4. However, since this is a protracted method, and it would not be applicable for the B. tabaci esterases, a selection of products already reported in the literature were used to compare the interference assay and the use of a model substrate.
From the literature (Philippou et al., 2013) it is known that 1-naphthyl acetate is not suitable for this assay. Instead, 4-nitrophenyl acetate was used. A 10 mM pNA stock was prepared in acetone and added to 0.02 M phosphate buffer pH 7.0 (final concentration 2 mM). The comparison was made with 6 analogues of variable efficacy.
For the assay 10 μL of purified FE4 was diluted to a total volume of 50 μL by the addition of 0.02 M phosphate buffer, pH 7.0 in individual wells of a microplate (maxisorb, NUNC). To each well, 2.5 μL of 10 mM of the compound of Example 1 and of Example 2 in acetone was added and incubated for 10 mins, with acetone only used as a control. Following incubation, 100 μL of 0.02 phosphate buffer, pH 7.0 and 100 μL of 2 mM 4-nitrophenyl acetate was added (final volume in well 250 μL, final substrate concentration 0.8 mM). Enzyme activity was read at 405 nm in a Spectramax Tmax for 5 min, with readings taken every 5 s. The rate (mOD min^−1) was calculated by the integrated software, Softmax Pro v.5.4. A PBO solution (10 mM) was prepared in the same way as a comparison.

Musca domestica = assay: Contact test on treated glass surfaces, synergist with cypermethrin; type: in vivo; settings: in combination with cypermethrin
Procedure: Laboratory bred Musca domestica species, 4-5 days old mixed sex imagoes derived from a field collected strain were assayed for the test. 1000 ml of test solutions were prepared diluting in water 6.06 grams of cypermethrin commercial formulation, equivalent to 0.224 g of cypermethrin per liter of insecticidal solution and a suitable amount of synergist such as to have a ratio between cypermethryn and synergists=1:13. The synergists were formulated in the form of emulsified concentrate (EC). The following amount of the formulations of synergist EC were added to the above described insecticidal solution of cypermethrin.
3.83 g of EC formulation containing 77.1% (w/w) of the compound of Example 2 (5-n-butyl-6-((prop-2-ynyloxy)methyl)benzo[d][1,3]dioxole)
3.57 g of EC formulation containing 83% (w/w) of the comparison compound 5-(but-2-ynyloxymethyl)-6-n-propyl-benzo[1,3]dioxole (EN126) corresponding to 2.95 g of the compound of the invention and of the comparison product per liter of test formulation
1 ml of each test formulation was applied to each individual grass surface of 100 cm^2 by means of a hand held pump sprayer on a scale measuring by 2 decimal precision, being the acceptable limit of divergence: +/−10%. The treated glass surfaces were left at room temperature for 24 hours after treatment and prior to be used. 40 mixed sex Musca domestica imagoes (20 males and 20 females) were selected and placed into a 500 cm^3 glass cylinders covered with an untreated glass surface until the start of the study. Five replicates were executed, altogether 200 houseflies (100 males and 100 females) were used per test formulation. At the beginning of the test, the untreated glass covering the glass cylinder was replaced with a glass surface treated with the test formulation. The exposure time was 30 minutes. After this period of time, the treated glass surfaces were removed and replaced with untreated ones. During the test water and food (water/sugar solution) were provided to the test insect inside the glass cylinders
In parallel with the test, the mortality of flies in an untreated control replicate was determined using the same conditions and methods. Throughout the control test, non-treated glass surfaces covered the glass cylinders. The maximum mortality rate allowed within the control group to consider the test representative was 10% after 24 hours. If above this value, the test was not considered representative and was repeated. During the trials, no deviance has been noted.
The test conditions were as follows: • temperature: 23-25° C. • relative humidity: min. 60% • light regime: 12 hrs dark/12 hrs natural illumination.
The reading intervals of the number of knocked down flies were: 10-20-30-40-50-60-90-120-180 minutes. Mortality was determined after 24 hours.
The efficacy was calculated according the following formula

Structure (SMILES) | inhibition activity compared with PBO [1] | remaining activity at 10000 µM (stock) [1] | efficacy compared with comparison product EN126 (Musca domestica) | knock down activity compared with comparison product EN126 (Musca domestica; clearly notable at short times)
C#CCOCc1cc2c(cc1CCCCCC)OCO2 [Compound of Example 1, 5-n-hexyl-6-((prop-2-ynyloxy)methyl)benzo[d][1,3]dioxole] | better than PBO | 23.1% |  | 
C#CCOCc1cc2c(cc1CCCC)OCO2 [Compound of Example 2, 5-n-butyl-6-((prop-2-ynyloxy)methyl)benzo[d][1,3]dioxole] | better than PBO | 28.7% | better efficacy | better knock down activity
